Measurements from patent EP0719251B1, “BICYCLO (2.2.2) OCTANE DERIVATIVES CHOLECYSTOKININ AND/OR GASTRIN ANTAGONISTS” (JAMES BLACK FOUNDATION LIMITED, priority 1993, dated 1995).
Values belong to the molecule of their own block, whether it stands above or below them.

Columns and labels:
CCKB receptor = target: T1, CCKB receptor (Mus musculus, UniProt P56481); assay: radioligand binding assay at the CCKB receptor in mouse cortical membranes; settings: [125I]-CCK8S 200pM, 150 min at 21 ± 3°C, read-out: CCKB pKi (converted)
T1 construct: The whole brains from male mice (CD1 22-25g; Charles River) were removed; from tissue; host or cells: cerebral cortex membranes of male CD1 mice
T1 sequence (P56481 1-453): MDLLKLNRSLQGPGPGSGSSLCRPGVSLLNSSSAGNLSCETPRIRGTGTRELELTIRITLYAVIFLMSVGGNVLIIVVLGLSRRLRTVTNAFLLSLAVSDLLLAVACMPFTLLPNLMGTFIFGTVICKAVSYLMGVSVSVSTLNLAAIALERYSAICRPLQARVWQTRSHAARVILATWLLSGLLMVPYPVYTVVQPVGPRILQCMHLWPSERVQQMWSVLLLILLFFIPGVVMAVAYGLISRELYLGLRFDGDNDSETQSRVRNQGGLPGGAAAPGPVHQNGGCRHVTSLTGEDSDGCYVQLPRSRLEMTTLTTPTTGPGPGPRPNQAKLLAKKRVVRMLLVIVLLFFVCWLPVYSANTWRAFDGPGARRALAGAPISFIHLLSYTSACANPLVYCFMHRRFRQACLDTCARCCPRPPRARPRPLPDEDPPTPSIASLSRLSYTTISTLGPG
Outline: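 Cortical membranes from male CD1 mice prepared in HEPES buffer (pH 7.2, with NaCl, KCl, MgCl2, EDTA, bacitracin) at 2 mg/ml wet weight. Binding stopped by rapid filtration over GF/B filters with ice-cold Tris-HCl washes. Bound radioactivity counted in a gamma-counter.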

gastrin = target: T2, gastrin (Rattus norvegicus, UniProt P30553); assay: gastrin antagonist activity in an immature rat stomach assay; settings: isolated immature rat stomach, cumulative pentagastrin dose-response curves, acid secretion; read-out: Gastrin pKB (converted)
T2 construct: The stomach was excised and flushed with ca. 1 ml of unbuffered physiological saline solution; from tissue; host or cells: isolated whole stomach of immature rats (33-50 g, ca. 21 days old)
T2 sequence (P30553 1-452): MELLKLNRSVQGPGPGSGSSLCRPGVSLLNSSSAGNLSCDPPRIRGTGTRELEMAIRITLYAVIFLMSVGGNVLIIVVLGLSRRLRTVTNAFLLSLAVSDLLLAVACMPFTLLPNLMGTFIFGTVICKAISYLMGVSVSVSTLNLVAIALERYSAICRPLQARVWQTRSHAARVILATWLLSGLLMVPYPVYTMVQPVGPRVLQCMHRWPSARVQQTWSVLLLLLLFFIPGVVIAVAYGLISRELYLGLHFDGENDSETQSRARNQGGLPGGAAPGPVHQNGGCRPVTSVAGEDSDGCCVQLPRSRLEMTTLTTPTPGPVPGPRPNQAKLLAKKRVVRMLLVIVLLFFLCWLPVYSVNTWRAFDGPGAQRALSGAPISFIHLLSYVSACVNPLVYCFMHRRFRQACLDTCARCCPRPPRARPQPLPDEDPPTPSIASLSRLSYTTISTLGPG
Outline: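 Isolated stomachs from immature rats (33-50 g, ca. 21 days) perfused at 1 ml min^-1 with O2-gassed unbuffered saline, perfusate pH monitored by electrode. After 120 min stabilisation, compounds added to serosal bath; cumulative pentagastrin dose-response curves begun 60 min later.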

CCKA = target: T3, CCKA (Cavia porcellus, UniProt Q63931); assay: CCKA binding assay in guinea-pig pancreas membranes; settings: [125I]-CCK8(S) 200pM; for Ki: containing 0.375 µM PD134,308, read-out: CCKA pKi (converted)
T3 construct: The pancreatata were removed from male guinea-pigs (200-300g; Dunkin Hartley); from tissue; host or cells: pancreas membranes of male Dunkin Hartley guinea-pigs
T3 sequence (Q63931 1-430): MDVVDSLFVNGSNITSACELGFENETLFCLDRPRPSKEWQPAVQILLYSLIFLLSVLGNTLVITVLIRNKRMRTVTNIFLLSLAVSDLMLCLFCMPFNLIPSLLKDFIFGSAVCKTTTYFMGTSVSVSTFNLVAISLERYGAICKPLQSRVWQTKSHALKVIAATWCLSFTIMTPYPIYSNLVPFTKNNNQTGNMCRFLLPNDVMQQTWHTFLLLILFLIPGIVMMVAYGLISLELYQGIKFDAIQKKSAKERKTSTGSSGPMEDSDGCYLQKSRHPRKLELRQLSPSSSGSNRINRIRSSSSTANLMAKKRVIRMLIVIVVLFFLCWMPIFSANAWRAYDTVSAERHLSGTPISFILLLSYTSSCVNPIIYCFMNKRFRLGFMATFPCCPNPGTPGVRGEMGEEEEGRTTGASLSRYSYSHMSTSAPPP
Procedure: The compounds of the examples were also tested in a CCKÅ binding assay as follows:
The pancreatata were removed from male guinea-pigs (200-300g; Dunkin Hartley) and placed in ice-cold HEPES buffer (pH 7.2 @ 21 ± 3° ). The pancreatata were homogenised in 40 ml ice-cold HEPES buffer using a polytron (Brinkmann, PT10, setting 10) 4 x 1 second.
The homogenate was centrifuged at 39,800g for 15 min at 4°. The supernatant was discarded and the pellet re-suspended using a Teflon-in-glass homogeniser in 20 volumes of fresh buffer and recentrifuged as above. The final pellet was re-suspended using a Teflon-in-glass homogeniser to a tissue concentration of 1 mg.ml^-1 (original wet weight), and filtered through 500 µm pore-size Nytex mesh.
The membranes (400µl; containing 0.375 µM PD134,308) are incubated for 150 minutes at 21 ± 3° in a final volume of 0.5ml with HEPES buffer containing [^125I]-CCK8(S) (50µl; 200pM) and competing compound. Total and non-specific binding of [^125I]-CCK8 (S) are defined using 50µl of buffer and 50µl of 100nM L-364,718 respectively. The assay is terminated by rapid filtration through pre-soaked Whatman GF/B filters using a Brandell Cell Harvester. The filters were washed (3 x 3ml) with ice-cold 50mM Tris HCl (pH 7.4 at 4° ) and bound radioactivity is determined by counting (1 min) in a gamma counter.

Ki (CCKB receptor): 0.01 µM | Kb (gastrin): 0.00631 µM | Ki (CCKA): 2 µM
Compound: O=C(O)c1cc(NC(=O)[C@H](Cc2ccccc2Cl)NC(=O)C2C3c4ccccc4C(c4ccccc43)C2C(=O)NCC23CC4CC(CC(C4)C2)C3)cc(C(=O)O)c1 (stereo partly drawn) [Example 20, cis-7-(1S-(3,5-dicarboxyphenylaminocarbonyl)-2-(2-chlorophenyl) -ethylaminocarbonyl)-8-(1-adamantanemethylaminocarbonyl) -2,3,5,6-dibenzobicyclo [2.2.2] octane]

Ki (CCKB receptor): 0.01 µM | Kb (gastrin): 0.00501 µM | Ki (CCKA): 0.794 µM
Compound: O=C(O)c1cc(NC(=O)[C@H](Cc2ccc(Cl)cc2)NC(=O)C2C3c4ccccc4C(c4ccccc43)C2C(=O)NCC23CC4CC(CC(C4)C2)C3)cc(C(=O)O)c1 (single isomer, unassigned) [Example 10, cis-7-(1S-(3,5-dicarboxyphenylaminocarbonyl)-2-(4-chlorophenyl)-ethylaminocarbonyl)-8-(1-adamantanemethylaminocarbonyl) -2,3,5,6-dibenzobicyclo[2.2.2]octane]

Ki (CCKB receptor): 0.0501 µM | Kb (gastrin): 0.0631 µM | Ki (CCKA): 1.26 µM
Compound: O=C(O)c1cc(NC(=O)[C@@H](Cc2cccs2)NC(=O)C2C3c4ccccc4C(c4ccccc43)C2C(=O)NCC23CC4CC(CC(C4)C2)C3)cc(C(=O)O)c1 (single isomer, unassigned) [Example 21, cis-7-(1R-(3,5-dicarboxyphenylaminocarbonyl)-2-(2-thiophenyl)ethylaminocarbonyl)-8-(1-adamantanemethylaminocarbonyl)-2,3,5,6-dibenzobicyclo[2.2.2]octane]

Ki (CCKB receptor): 0.0158 µM | Kb (gastrin): 0.0158 µM | Ki (CCKA): 1.26 µM
Compound: O=C(O)c1cc(NC(=O)[C@@H](Cc2ccccc2)NC(=O)C2C3c4ccccc4C(c4ccccc43)C2C(=O)NCC23CC4CC(CC(C4)C2)C3)cc(C(=O)O)c1 (single isomer, unassigned) [Example 4, cis-7-(1R-(3,5-dicarboxyphenylaminocarbonyl)-2-phenylethylaminocarbonyl)-8-(1-adamantananethylaminocarbonyl) -2,3,5,6-dibenzobicyclo[2.2.2]octane]

Ki (CCKB receptor): 0.00158 µM | Kb (gastrin): 0.00501 µM | Ki (CCKA): 2 µM
Compound: O=C(O)c1cc(NC(=O)[C@H](Cc2ccccc2)NC(=O)C2C3c4ccccc4C(c4ccccc43)C2C(=O)NCC23CC4CC(CC(C4)C2)C3)cc(C(=O)O)c1 (single isomer, unassigned) [Example 1, cis-7-(1S-(3,5-dicarboxyphenylamino-carbonyl) -2-phenylethylaminocarbonyl)-8-(1-adamantanemethylamino-carbonyl) -2,3,5,6-dibenzobicyclo[2.2.2] octane]

Ki (CCKB receptor): 0.501 µM | Kb (gastrin): 0.398 µM | Ki (CCKA): 2.51 µM
Compound: O=C(O)c1cc(NC(=O)[C@@H](NC(=O)C2C3c4ccccc4C(c4ccccc43)C2C(=O)NCC23CC4CC(CC(C4)C2)C3)c2ccccc2)cc(C(=O)O)c1 (stereo partly drawn) [Example 39, cis-7-(1S-(3,5-dicarboxyphenylaminocarbonyl) -3-phenylmethylaminocarbonyl)-8-(1-adamantanemethylaminocarbonyl) -2,3,5,6-dibenzobicyclo[2.2.2]octane]

The next lines start with the molecule.

Compound: CN(C(=O)C1C2c3ccccc3C(c3ccccc32)C1C(=O)NCC12CC3CC(CC(C3)C1)C2)[C@@H](Cc1ccccc1)C(=O)Nc1cc(C(=O)O)cc(C(=O)O)c1 (stereo partly drawn) [Example 38, cis-7-(1S-(3,5-dicarboxyphenylaminocarbonyl) -2-phenylethyl-N (methyl)-aminocarbonyl) -8-(1-adamantanemethylaminocarbonyl) -2,3,5,6-dibenzobicyclo[2.2.2]octane]
Ki (CCKB receptor): 0.0501 µM | Kb (gastrin): 0.0794 µM | Ki (CCKA): 0.316 µM

Compound: O=C(O)c1cccc(NC(=O)[C@H](Cc2ccccc2)NC(=O)C2C3c4ccccc4C(c4ccccc43)C2C(=O)NCC23CC4CC(CC(C4)C2)C3)c1 (single isomer, unassigned) [Example 40, cis-7-(1S-(3-carboxyphenylaminocarbonyl)-2-phenylethylaminocarbonyl) -8-(1-adamantanemethylaminocarbonyl)-2,3,5,6-dibenzobicyclo[2.2.2]octane]
Ki (CCKB receptor): 0.0158 µM | Kb (gastrin): 2 µM | Ki (CCKA): 1 µM

Compound: O=C(O)c1cc(NC(=O)[C@H](CC2CCCCC2)NC(=O)C2C3c4ccccc4C(c4ccccc43)C2C(=O)NCC23CC4CC(CC(C4)C2)C3)cc(C(=O)O)c1 (stereo partly drawn) [Example 5, cis-7-(1S-(3,5-dicarboxyphenylaminocarbonyl) -2-cyclohexylethylaminocarbonyl)-8-(1-adamantanemethylaminocarbonyl) -2,3,5,6-dibenzobicyclo[2.2.2]octane]
Ki (CCKB receptor): 0.0251 µM | Kb (gastrin): 0.316 µM | Ki (CCKA): 1 µM

Compound: COc1ccc(C[C@H](NC(=O)C2C3c4ccccc4C(c4ccccc43)C2C(=O)NCC23CC4CC(CC(C4)C2)C3)C(=O)Nc2cc(C(=O)O)cc(C(=O)O)c2)cc1 (single isomer, unassigned) [Example 12, cis-7-(1S-(3,5-dicarboxyphenylaminocarbonyl)-2-(4-methoxyphenyl) -ethylaminocarbonyl)-8-(1-adamantanemethylaminocarbonyl) -2,3,5,6-dibenzobicyclo[2.2.2]octane]
Ki (CCKB receptor): 0.1 µM | Kb (gastrin): 0.0631 µM | Ki (CCKA): 1.58 µM

Compound: O=C(O)c1cc(NC(=O)[C@H](Cc2ccccc2)NC(=O)C2C3c4ccccc4C(c4ccccc43)C2C(=O)NCc2ccc3ccccc3c2)cc(C(=O)O)c1 (single isomer, unassigned) [Example 64, cis-7-(1S-(3,5-dicarboxyphenylaminocarbonyl) -2-phenylethylaminocarbcnyl)-8-(2-naphthalenemethylaminocarbonyl)-2,3,5,6-dibenzobicyclo [2.2.2]octane]
Ki (CCKB receptor): 0.00501 µM | Kb (gastrin): 0.316 µM | CCKA pKi (CCKA; containing 0.375 µM PD134,308): 5.8

Compound: O=C(O)c1cc(NC(=O)[C@H](Cc2cccs2)NC(=O)C2C3c4ccccc4C(c4ccccc43)C2C(=O)NCC23CC4CC(CC(C4)C2)C3)cc(C(=O)O)c1 (single isomer, unassigned) [Example 7, cis-7-(1S-(3,5-dicarboxyphenylaminocarbonyl) -2-(2-thiophenyl)ethylaminocarbonyl)-8-(1-adamantanemethylaminocarbonyl) -2,3,5,6-dibenzobicyclo[2.2.2]octane]
Ki (CCKB receptor): 0.0501 µM | Kb (gastrin): 0.251 µM | Ki (CCKA): 0.501 µM
